Reference: publication PMC5929572, “Nucleobases and corresponding nucleosides display potent antiviral activities against dengue virus possibly through viral lethal mutagenesis” (PLoS Neglected Tropical Diseases, 2018)

Experiments:
[1] = system: DENV-2 viral replicon; test: microbe, parasite or virus in culture; format: cell-based; details: DENV replicon cells, EC50 compared
Description: Compounds were evaluated for antiviral properties using BHK cells containing a DENV-2 viral replicon. 1.5 × 10^3 replicon-containing cells per well were plated in white opaque 96-well plates in the absence of antibiotic selection and the next day, compounds dissolved in DMSO were added to triplicate wells in culture medium. The compounds were initially tested at 10 and 50 μM final concentrations and each plate also contained DMSO alone, medium alone, and 6. Three days later, medium was replaced with a 1:1000 dilution of ViVi-Ren Live Cell Substrate (Promega) in DME minus phenol red and 10% FBS. Luminescence was measured with a Molecular Devices M5e plate reader. Mean values of triplicate wells were determined and compared to the mean value for the wells that received DMSO alone. […] The EC50 was determined by comparing luciferase activity for eight serial dilutions of the compound and DMSO treated cells using GraphPad Prism software.

[2] = Cell viability assay (MTS) in DENV replicon cells; format: cell-based, baby hamster; details: hamster, DENV replicon cells (BHK pD2-hRucPac-2ATG30), DENV replicon BHK cells, MTS, 72 h
[3] = system: DENV-2; test: Titer reduction assay in Huh-7 cells, plaque assay on Vero cells; format: cell-based, DENV-2 New Guinea C strain; details: Dengue virus, DENV2, m.o.i. 0.2, 72 h
Description: (§1) Huh-7 cells were seeded in 12-well plates at a density of 4×10^5 cells per well in 1 mL culture medium. The next day, cells were washed and inoculated with DENV at a multiplicity of infection (m.o.i.) of 0.2 in 500μl infection medium (MEM containing 2% FBS and 10 mM HEPES). The inoculum was removed after 1h, cells were washed with PBS and then incubated in 1 mL MEM, 2% FBS, 1% pen/strep plus compound for 72 h. Viral supernatants were clarified by centrifugation for 5 min at 1500×g and aliquoted and stored at -80°C. Viral titers were determined using a plaque assay on Vero cells. Briefly, confluent Vero cell monolayers in 24-well plates were incubated at 37°C for 1 h with duplicate 300 μl samples of 10-fold serial dilutions of viral supernatants. The cells were then washed to remove unbound viral particles and overlaid with 500ul MEM containing 1.3% methylcellulose, 5% FBS and 10mM HEPES. After 5 days of incubation at 37°C and 5% CO2, cells were washed with PBS, fixed, and stained using 1% Giemsa. Infectious virus titer (pfu/mL) was determined using the following formula: number of plaques × dilution factor × (1/inoculation volume). The viral titer was presented as the mean of duplicate samples from a dilution yielding approximately 20–50 plaques per well.

[4] = Cell viability assay (MTS) in Huh-7 cells; format: cell-based; details: human
Description: The sensitivity of the cell lines to the compounds was examined using the 3-(4,5-dimethylthiazol-2-yl)-5-(3-carboxymethoxyphenyl)-2-(4-sulfophenyl)-2H-tetrazolium (MTS)-based tetrazolium reduction CellTiter 96 Aqueous Non-Radioactive cell proliferation assay (Promega G5430). The compounds were initially tested at 10 and 50 μM final concentrations. Each plate also contained DMSO alone, medium alone, and an inhibitory compound, 6. DENV replicon or Huh-7 cells were plated at a density of 1,500 or 8 × 10^3 cells, respectively, per well in 96-well plates containing 100 μl of culture medium overnight. Compounds were added to triplicate wells in culture medium and incubated for an additional 72 h. MTS reagent was then added to each well and incubated at 37°C in a humidified 5% CO2 atmosphere. The plates were read at various time points at a wavelength of 490 nm using a Molecular Devices M5e plate reader. Mean values of triplicate wells were determined and compared to the mean value for the wells that received DMSO alone. For compounds selected for dose-response experiments, the CC50 was determined by comparing cell viability for eight serial dilutions of the compound and DMSO treated cells using GraphPad Prism software.

[5] = system: DENV-2; test: Virus passage in presence of compound, supernatant titer by plaque assay; format: cell-based, DENV-2 New Guinea C strain; details: 3a 200 μM, Huh-7, passages 5 and 6; limit of detection 3.3 pfu/mL
Description: as §1, with “After 5 days of incubation at 37°C and 5% CO2, cells were washed with PBS, fixed, and stained using 1% Giemsa.” left out, “The viral titer was presented as the mean of duplicate samples from a dilution yielding approximately 20–50 plaques per well.” left out
(§2) Virus was passaged on Huh-7 cells supplemented with 200 μM 3a, 500 μM 3b or DMSO (0.5%). […] The virus titer in the harvested supernatant was determined by plating ten-fold serial dilutions onto single wells of a 24-well plate. […] Supernatant titer was determined from a single well where there were approximately 20–50 plaques when possible. […]

[6] = system: DENV-2; test: Virus passage in presence of compound, genome copy number by RT-qPCR (NS5); format: cell-based, DENV-2 New Guinea C strain; details: 3a 200 μM, Huh-7, passage 6; limit of detection 30 copies
Description: For qPCR determination of viral genome copy number, viral RNA was isolated from 140 μL of drug-treated or DMSO-treated infected culture supernatant using QIAamp Viral RNA mini kit (Qiagen), following manufacturer’s protocol. Viral RNA was quantified using the TaqMan RNA-to-CT 1-Step qPCR Kit (Applied Biosystems). Primers used for qPCR were 5’-[…]-3’ (forward) and 5’-[…]-3’ (reverse) amplifying a region numbering 8928–8988 in the genome (numbering starting from the beginning of genome, accession number KM204118). The qPCR FAM probe sequence is 5’-[…]-3’. Serial 10-fold dilutions of plasmid containing the NS5 gene of DENV were used to generate a standard curve for the quantification of viral RNA genome copy number based on cycle threshold (CT) values. […] Sequences were aligned over a 980-base region that had adequate quality sequencing reads for all clones. Only mutations present in both the forward and reverse reads of a clone were counted. All incidence-based determinants of mutation frequency (Mf min, Mf max, Mfe) were calculated as described.
as §2

[7] = system: DENV-2; test: Sequence analysis of prM/E region clones from passaged virus (mutation frequency); format: cell-based, DENV-2 New Guinea C strain
Description: For qPCR determination of viral genome copy number, viral RNA was isolated from 140 μL of drug-treated or DMSO-treated infected culture supernatant using QIAamp Viral RNA mini kit (Qiagen), following manufacturer’s protocol. Viral RNA was quantified using the TaqMan RNA-to-CT 1-Step qPCR Kit (Applied Biosystems). Primers used for qPCR were 5’-[…]-3’ (forward) and 5’-[…]-3’ (reverse) amplifying a region numbering 8928–8988 in the genome (numbering starting from the beginning of genome, accession number KM204118). The qPCR FAM probe sequence is 5’-[…]-3’. Serial 10-fold dilutions of plasmid containing the NS5 gene of DENV were used to generate a standard curve for the quantification of viral RNA genome copy number based on cycle threshold (CT) values. The limit of detection for NS5 plasmid dilutions was 30 copies (S1 Fig). […] Statistical analysis via GraphPad Prism 5 software. To obtain sequence data from viral RNA isolated at each passage, cDNA was generated via M-MLV reverse transcriptase and random hexamers (New England Biolab Inc.) per manufacturer’s instructions. An approximately 1600-base fragment covering membrane protein (prM) and envelop protein gene (E) of DENV-2 viral genome was amplified using PfuUltra II Fusion HS DNA polymerase (Agilent) with primers prMEfor (5'- […]-3') and prMErev (5'- […] -3'). PCR products were purified using Qiaquick PCR purification kit (Qiagen) and then digested with EcoRI and ligated into pcDNA3.1 for sequencing. Sequence for approximately 40–50 individual clones per sample was obtained from the University of Minnesota Genomics Center. Sequences were aligned over a 980-base region that had adequate quality sequencing reads for all clones. Only mutations present in both the forward and reverse reads of a clone were counted. All incidence-based determinants of mutation frequency (Mf min, Mf max, Mfe) were calculated as described.
Virus was passaged on Huh-7 cells supplemented with 200 μM 3a, 500 μM 3b or DMSO (0.5%). Huh-7 cells were seeded in 12-well plates and inoculated with DENV-2 as described for Titer reduction experiments above except an m.o.i. of 0.01 was used. After 3 days of compound treatment, 50 μL of the harvested supernatant was used to inoculate fresh Huh-7 cells in the continued presence of compound. The virus titer in the harvested supernatant was determined by plating ten-fold serial dilutions onto single wells of a 24-well plate. The wells were washed and overlaid as described in the Titer reduction assay above. If no plaques were obtained in any of the harvested supernatant dilutions, the undiluted supernatant was used. If plaques were not detectable, the virus titer was considered to be at the limit of detection, 1 plaque (3.3 pfu/mL). Supernatant titer was determined from a single well where there were approximately 20–50 plaques when possible. This experiment was repeated three times at the compound concentrations listed.

[8] = passage 2, 3a 200 μM, 3b 500 μM, Huh-7
[9] = passage 3, 3a 200 μM, 3b 500 μM, Huh-7

NC(=O)c1nccnc1O [Compound 3a, 3-Hydroxy-2-pyrazinecarboxamide]
times more active than nucleobase 5a (favipiravir) [1]: 5 times | CC50 at 72 h [2]: > 665 µM | EC50 [3]: 20 ± 11 µM | CC50 at 72 h [4]: > 1000 µM | infectious virus in supernatant [5]: no infectious virus was detected | genomic RNA in supernatant [6]: no genomic RNA was detected | number of mutations per clone compared to DMSO ([7]; 3a 200 μM passage 4, 3b 500 μM passage 3, p < 0.0001, Mann-Whitney U): significant difference | Mf max (maximum mutation frequency) [7, 8]: 24.6 per 10,000 nucleotides | Mf min (minimum mutation frequency) [7, 8]: 5.2 per 10,000 nucleotides | Mfe (entity level mutation frequency) [7, 8]: 2.5 ×10^−3 | Number of clones with mutation/total [7, 8]: 26/36 | Number of different mutations [7, 8]: 17 | Number of haplotypes [7, 8]: 17 | Number of total mutations [7, 8]: 80 | Transition A→G, number of mutations [7, 8]: 3 | Transition C→U, number of mutations [7, 8]: 4 | Transition G→A, number of mutations [7, 8]: 3 | Transition U→C, number of mutations [7, 8]: 1 | Transversion A→U, number of mutations [7, 8]: 1 | Transversion G→U, number of mutations [7, 8]: 2 | Transversion U→A, number of mutations [7, 8]: 2 | Transversion U→G, number of mutations [7, 8]: 1 | Mf max (maximum mutation frequency) [7, 9]: 5.7 per 10,000 nucleotides | Mf min (minimum mutation frequency) [7, 9]: 2.7 per 10,000 nucleotides | Mfe (entity level mutation frequency) [7, 9]: 1.4 ×10^−3 | Number of clones with mutation/total [7, 9]: 12/37 | Number of different mutations [7, 9]: 9 | Number of haplotypes [7, 9]: 9 | Number of total mutations [7, 9]: 19 | Transition C→U, number of mutations [7, 9]: 3 | Transition G→A, number of mutations [7, 9]: 3 | Transition U→C, number of mutations [7, 9]: 2 | Transversion G→U, number of mutations [7, 9]: 1 | Mf max (maximum mutation frequency) ([7]; passage 4, 3a 200 μM, Huh-7): 6.6 per 10,000 nucleotides | Mf min (minimum mutation frequency) ([7]; passage 4, 3a 200 μM, Huh-7): 3.9 per 10,000 nucleotides | Mfe (entity level mutation frequency) ([7]; passage 4, 3a 200 μM, Huh-7): 1.6 ×10^−3 | Number of clones with mutation/total ([7]; passage 4, 3a 200 μM, Huh-7): 19/45 | Number of different mutations ([7]; passage 4, 3a 200 μM, Huh-7): 16 | Number of haplotypes ([7]; passage 4, 3a 200 μM, Huh-7): 15 | Number of total mutations ([7]; passage 4, 3a 200 μM, Huh-7): 27 | Transition A→G, number of mutations ([7]; passage 4, 3a 200 μM, Huh-7): 2 | Transition C→U, number of mutations ([7]; passage 4, 3a 200 μM, Huh-7): 3 | Transition G→A, number of mutations ([7]; passage 4, 3a 200 μM, Huh-7): 3 | Transition U→C, number of mutations ([7]; passage 4, 3a 200 μM, Huh-7): 4 | Transversion C→A, number of mutations ([7]; passage 4, 3a 200 μM, Huh-7): 2 | Transversion U→A, number of mutations ([7]; passage 4, 3a 200 μM, Huh-7): 2
